The test system of one test is MAPK14 (C3H mice). The test is described as follows: Inhibition of LPS Stimulated TNF Production in C3H Mice. To be noted: dose or concentration not given here.
A further test concerns the target MAPK14 (UniProt Q16539). Kind of test: Inhibition of p38 Kinase Activity.
The target of test [1] is MAPK14 (human) (UniProt Q16539). Kind of test: Inhibition of HFF Cell Proliferation.
The target is the same in test [2]. Kind of test: Inhibition of TNF Release from Human Peripheral Blood Mononuclear Cells. To be noted: pbmc.

Chain of MAPK14 (Q16539 whole entry, looked up): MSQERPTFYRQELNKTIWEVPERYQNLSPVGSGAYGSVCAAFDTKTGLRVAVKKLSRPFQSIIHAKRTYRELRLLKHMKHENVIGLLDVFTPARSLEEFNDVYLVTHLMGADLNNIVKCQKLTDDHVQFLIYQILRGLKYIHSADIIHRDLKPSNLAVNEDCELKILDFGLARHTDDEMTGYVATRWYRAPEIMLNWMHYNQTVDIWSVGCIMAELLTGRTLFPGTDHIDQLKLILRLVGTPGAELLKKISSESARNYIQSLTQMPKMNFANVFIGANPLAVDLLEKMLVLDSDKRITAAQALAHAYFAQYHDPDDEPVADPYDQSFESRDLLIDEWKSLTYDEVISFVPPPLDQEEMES
Chain of MAPK14 (human) (Q16539 whole entry, looked up): as above

A word on the inhibition: it is the percentage by which the read-out fell short of the control. Low readings indicate a response near the control, high ones a response far below the control. The term IC50 denotes the midpoint of a concentration-inhibition curve. High values mean a need for much substance, low ones inhibition by little substance. Molecule `CCCCNc1nccc(-c2c(-c3ccc(F)cc3)nn3ccccc23)n1` yielded an inhibition in the test with MAPK14 (C3H mice) of 88%. At MAPK14, this molecule registered an IC50 below 500 nM. For the molecule `Fc1ccc(-c2nn3ccccc3c2-c2ccncc2)cc1`, the inhibition with MAPK14 (C3H mice) is 65%. Moreover, the half-maximal inhibitory concentration (IC50) against MAPK14 was below 500 nM; at MAPK14 (human) [1] it was above 50000 nM. `Fc1ccc(-c2nn3cc(C(F)(F)F)ccc3c2-c2ccnc(Oc3ccccc3)n2)cc1` registered an IC50 at MAPK14 below 500 nM. On the same count and under the same terms, the value for `CCCN(CCC)CCNc1nccc(-c2c(-c3ccc(C(F)(F)F)cc3)nn3cc(C(F)(F)F)ccc23)n1` was 1000 to 10000 nM; that for `Fc1ccc(-c2nn3ccccc3c2-c2ccnc(NC3CC3)n2)cc1` was below 500 nM. Regarding `CCCN1CCN(CCNc2nccc(-c3c(-c4ccc(C(F)(F)F)cc4)nn4cc(C(F)(F)F)ccc34)n2)CC1`, the half-inhibitory concentration (IC50) against MAPK14 is 1000 to 10000 nM. On the same count and under the same terms, the value for `Fc1ccc(-c2nn3cc(C(F)(F)F)ccc3c2-c2ccnc(NCCN3CCCC3)n2)cc1Cl` was 100 to 1000 nM. The same measure, in the same setting: the same measure for `Nc1nccc(-c2c(-c3ccc(F)cc3)nn3cc(C(F)(F)F)ccc23)n1`: below 500 nM. As for `COc1ccn2nc(-c3ccc(F)cc3)c(-c3ccncc3)c2c1`, the inhibition with MAPK14 (C3H mice) stood at 11%. In addition, at MAPK14, the 50% inhibitory concentration (IC50) lay in the range of 500 to 5000 nM. The matching figures for `Fc1ccc(-c2nn3cc(C(F)(F)F)ccc3c2-c2ccnc(NC3CC3)n2)cc1`: 24% and below 500 nM. In the test with MAPK14 (C3H mice), `Fc1ccc(-c2nn3ccccc3c2-c2ccnc(NCc3ccc(Cl)cc3)c2)cc1` gave an inhibition of 42%. Moreover, the half-maximal inhibitory concentration (IC50) against MAPK14 and against MAPK14 (human) [2] was below 500 nM each time. Turning to `CCN(CC)CCNc1nccc(-c2c(-c3ccc(C(F)(F)F)cc3)nn3cc(C(F)(F)F)ccc23)n1`, at MAPK14, the IC50 lay within 1000 to 10000 nM. The same measure, in the same setting: the same measure for `CN1CCN(CCCNc2nccc(-c3c(-c4ccc(F)cc4)nn4cc(C(F)(F)F)ccc34)n2)CC1`: 10 to 100 nM; for `Fc1ccc(-c2nn3ccccc3c2-c2ccnc(NCCc3cnc[nH]3)n2)cc1`: below 500 nM; for `Cc1ccc(C)c(Oc2nccc(-c3c(-c4ccc(F)cc4)nn4cc(C(F)(F)F)ccc34)n2)c1`: below 500 nM. On the same count and under the same terms, the value for `FC(F)(F)c1ccc2c(-c3ccnc(NCCCCN4CCCC4)n3)c(-c3cccc(Cl)c3)nn2c1` was 10 to 100 nM; that for `Fc1ccc(-c2nn3cc(C(F)(F)F)ccc3c2-c2ccnc(NCCCN3CCCCC3)n2)cc1Cl` was 100 to 1000 nM.

In the test on MAPK14 (C3H mice), `CSc1nccc(-c2c(-c3ccc(F)cc3)nn3ccccc23)n1` showed an inhibition of 56%. The IC50 against MAPK14 was below 500 nM. With `CCCN(CCC)CCNc1nccc(-c2c(-c3cccc(Cl)c3)nn3cc(C(F)(F)F)ccc23)n1`, the IC50 against MAPK14 fell in the range of 100 to 1000 nM. `CCN(CC)CCNc1nccc(-c2c(-c3cccc(Cl)c3)nn3cc(C(F)(F)F)ccc23)n1`: the IC50 on MAPK14 lay within 100 to 1000 nM. `OCCCNc1nccc(-c2c(-c3ccc(F)cc3)nn3cc(C(F)(F)F)ccc23)n1` displayed a half-maximal inhibitory concentration (IC50) at MAPK14 below 500 nM. As for `Fc1ccc(-c2nn3ccccc3c2-c2ccncn2)cc1`, in the test with MAPK14 (C3H mice), the inhibition was 67%. Further, the results for the half-inhibitory concentration (IC50) at MAPK14 and against MAPK14 (human) [1] were 500 to 5000 nM and above 50000 nM, respectively. Regarding `CN(C)CCCNc1nccc(-c2c(-c3ccc(C(F)(F)F)cc3)nn3cc(C(F)(F)F)ccc23)n1`, the IC50 against MAPK14 lay in the range of 1000 to 10000 nM. Regarding `CCCN1CCN(CCNc2nccc(-c3c(-c4ccc(F)c(Cl)c4)nn4cc(C(F)(F)F)ccc34)n2)CC1`, on MAPK14, the IC50 fell in the range of 10 to 100 nM.

With `NC(=O)c1ccc2c(-c3ccnc(NCCCO)n3)c(-c3ccc(F)cc3)nn2c1`, the half-inhibitory concentration (IC50) against MAPK14 was below 500 nM. As for `FC(F)(F)c1ccc(-c2nn3cc(C(F)(F)F)ccc3c2-c2ccnc(NCCN3CCCC3)n2)cc1`, at MAPK14, the 50% inhibitory concentration (IC50) lay in the range of 1000 to 10000 nM. The same measure, in the same setting: the value for `CN(C)CCCNc1nccc(-c2c(-c3ccc(F)c(Cl)c3)nn3cc(C(F)(F)F)ccc23)n1` was 10 to 100 nM; that for `CCCN(CCC)CCNc1nccc(-c2c(-c3ccc(F)c(Cl)c3)nn3cc(C(F)(F)F)ccc23)n1` was 100 to 1000 nM.

Turning to `CN1CCN(CCCNc2nccc(-c3c(-c4ccc(F)c(Cl)c4)nn4cc(C(F)(F)F)ccc34)n2)CC1`, at MAPK14, the IC50 fell in the range of 10 to 100 nM. On the same count and under the same terms, the value for `FC(F)(F)c1ccc(-c2nn3cc(C(F)(F)F)ccc3c2-c2ccnc(NCCN3CCOCC3)n2)cc1` was 1000 to 10000 nM. In the test with MAPK14 (C3H mice), `NC(=O)c1ccc2c(-c3ccnc(NC4CC4)n3)c(-c3ccc(F)cc3)nn2c1` gave an inhibition of 90%. The IC50 against MAPK14 and against MAPK14 (human) [2] was below 500 nM in each case. At MAPK14, `Fc1ccc(-c2nn3cc(C(F)(F)F)ccc3c2-c2ccnc(NCCN3CCOCC3)n2)cc1Cl` gave an IC50 of 10 to 100 nM. On the same count and under the same terms, the same measure for `CC(C)N(CCNc1nccc(-c2c(-c3ccc(F)c(Cl)c3)nn3cc(C(F)(F)F)ccc23)n1)C(C)C`: 100 to 1000 nM; for `CN(C)CCCNc1nccc(-c2c(-c3ccc(F)cc3)nn3cc(C(F)(F)F)ccc23)n1`: 100 to 1000 nM; for `Fc1ccc(-c2nn3cc(C(F)(F)F)ccc3c2-c2ccnc(NCCN3CCCCCC3)n2)cc1Cl`: 100 to 1000 nM.

In the test with MAPK14 (C3H mice), `N#Cc1ccc2c(-c3ccnc(NC4CC4)n3)c(-c3ccc(F)cc3)nn2c1` had an inhibition of 52%. The same molecule returned an IC50 against MAPK14 below 500 nM.

On MAPK14, `FC(F)(F)c1ccc(-c2nn3cc(C(F)(F)F)ccc3c2-c2ccnc(NCCCN3CCCCC3)n2)cc1` came in with a half-inhibitory concentration (IC50) of 1000 to 10000 nM.

At MAPK14, `CCCN1CCN(CCNc2nccc(-c3c(-c4cccc(Cl)c4)nn4cc(C(F)(F)F)ccc34)n2)CC1` displayed an IC50 of 10 to 100 nM.

The molecule `FC(F)(F)c1ccc2c(-c3ccnc(NCCN4CCCCCC4)n3)c(-c3cccc(Cl)c3)nn2c1` came in with a concentration for half-maximal inhibition (IC50) against MAPK14 of 100 to 1000 nM.

On MAPK14, `FC(F)(F)c1ccc2c(-c3ccnc(NCCN4CCCCC4)n3)c(-c3cccc(Cl)c3)nn2c1` came in with a 50% inhibitory concentration (IC50) of 100 to 1000 nM. In the case of `Nc1ncccc1C(=O)OCc1ccn2nc(-c3ccc(F)cc3)c(-c3ccncc3)c2c1`, the IC50 on MAPK14 is below 500 nM; against MAPK14 (human) [1], above 50000 nM. With `CCN(CC)CCCCNc1nccc(-c2c(-c3cccc(Cl)c3)nn3cc(C(F)(F)F)ccc23)n1`, on MAPK14, the IC50 is 10 to 100 nM. On MAPK14, `FC(F)(F)c1ccc(-c2nn3cc(C(F)(F)F)ccc3c2-c2ccnc(NCCN3CCCCC3)n2)cc1` registered an IC50 of 1000 to 10000 nM. Still for that read-out and setting: the same measure for `CN(C)CCCNc1nccc(-c2c(-c3cccc(Cl)c3)nn3cc(C(F)(F)F)ccc23)n1`: 10 to 100 nM; for `NC(=O)c1ccc2c(-c3ccnc(NCCCN4CCCCC4)n3)c(-c3ccc(F)cc3)nn2c1`: below 500 nM.

For the molecule `Fc1ccc(-c2nn3ccccc3c2-c2ccnc(NCc3cccnc3)c2)cc1`, the values for the IC50 at MAPK14 and on MAPK14 (human) [1] were below 500 nM and 5000 to 50000 nM, respectively.

For `CC(C)Nc1nccc(-c2c(-c3ccc(F)cc3)nn3cc(C(F)(F)F)ccc23)n1`, the inhibition in the test on MAPK14 (C3H mice) stood at 45%. This molecule also registered an IC50 against MAPK14 below 500 nM. For `Fc1ccc(-c2nn3ccccc3c2-c2ccnc(NCc3ccccn3)n2)cc1`, in that order: 87% and below 500 nM.

Molecule `Fc1ccc(-c2nn3cc(C(F)(F)F)ccc3c2-c2ccnc(NCCN3CCCCC3)n2)cc1Cl` had an IC50 at MAPK14 of 100 to 1000 nM.

The molecule `FC(F)(F)c1ccc(-c2nn3cc(C(F)(F)F)ccc3c2-c2ccnc(NCCCN3CCOCC3)n2)cc1` yielded an IC50 against MAPK14 of 1000 to 10000 nM.

As for `CCN(CC)CCCCNc1nccc(-c2c(-c3ccc(F)c(Cl)c3)nn3cc(C(F)(F)F)ccc23)n1`, the IC50 against MAPK14 lay in the range of 10 to 100 nM. On to `Nc1nccc(-c2c(-c3ccc(F)cc3)nn3ccccc23)n1`, for which the inhibition in the test on MAPK14 (C3H mice) was determined as 62%. The molecule also gave an IC50 on MAPK14 below 500 nM. With `FC(F)(F)c1ccc2c(-c3ccnc(NCCCN4CCOCC4)n3)c(-c3cccc(Cl)c3)nn2c1`, at MAPK14, the half-inhibitory concentration (IC50) lay in the range of 10 to 100 nM. The molecule `FC(F)(F)c1ccc2c(-c3ccnc(NCCN4CCCC4)n3)c(-c3cccc(Cl)c3)nn2c1` gave a half-inhibitory concentration (IC50) against MAPK14 of 100 to 1000 nM.

For the molecule `Fc1ccc(-c2nn3cc(C(F)(F)F)ccc3c2-c2ccnc(NCCCN3CCOCC3)n2)cc1Cl`, the IC50 at MAPK14 is 100 to 1000 nM. Regarding `OCc1ccn2nc(-c3ccc(F)cc3)c(-c3ccncc3)c2c1`, the IC50 against MAPK14 was below 500 nM. Molecule `Fc1ccc(-c2nn3cc(C(F)(F)F)ccc3c2-c2ccncc2)cc1` gave a concentration for half-maximal inhibition (IC50) on MAPK14 below 500 nM. `OCCCNc1cc(-c2c(-c3ccc(F)cc3)nn3ccccc23)ccn1` registered an inhibition in the test on MAPK14 (C3H mice) of 45%. In addition, the values for the half-inhibitory concentration (IC50) on MAPK14 and against MAPK14 (human) [1] were below 500 nM and above 50000 nM, respectively.
